Experimental data published in PMC3548936 (ACS chemical biology, 2012).

Columns and labels:
[1] = test system: VSV-G pseudotyped HIV particles (WT); assay: microbe, parasite or virus in culture; assay type: cell-based, HIV-1; details: Human immunodeficiency virus 1, HOS, read-out: Antiviral IC50 ± SD (EC50), WT
[2] = in vitro; details: human
[3] = test system: VSV-G pseudotyped HIV particles (IN Y143R); assay type: cell-based, HIV-1; details: read-out: Antiviral IC50 ± SD (EC50), Y143R

Cc1nnc(C(=O)NC(C)(C)c2nc(C(=O)NCc3ccc(F)cc3)c(O)c(=O)n2C)o1 [RAL, raltegravir]
EC50 [1]: 0.004 ± 0.002 µM
CC50 [2]: > 100 µM
EC50 [3]: 0.21 ± 0.01 µM
